In ChEMBL document CHEMBL1145631, “Development of a fluorescence polarization based assay for histone deacetylase ligand discovery” (Bioorg Med Chem Lett, 2008) one finds IC50, Ki and Kd data, which are given here for 3 compounds.

pIC50, pKd, pKi: −log10 of the molar value. Some results are limits rather than exact numbers.

For assay [1], the target named is Histone deacetylase 3/Nuclear receptor corepressor 2 (HDAC3/NCoR2) (Homo sapiens, UniProt O15379). The format is protein-complex assay.
Description: Displacement of fluorescent 5-(3-(3-(4-((4-((7-(hydroxyamino)-7-oxoheptyl)carbamoyl)phenylamino)methyl)-1H-1,2,3-triazol-1-yl)propyl)thioureido)-2-(3-hydroxy-6-oxo-6H-xanthen-9-yl)benzoic acid from human HDAC3/NcoR2 by fluorescence polarization assay
Another assay deals with Histone deacetylase. It is filed as protein assay, Homo sapiens.
The target in assay [2] is T1, Protein deacetylase HDAC6 (Homo sapiens, UniProt Q9UBN7).
T1 sequence (Q9UBN7 whole entry): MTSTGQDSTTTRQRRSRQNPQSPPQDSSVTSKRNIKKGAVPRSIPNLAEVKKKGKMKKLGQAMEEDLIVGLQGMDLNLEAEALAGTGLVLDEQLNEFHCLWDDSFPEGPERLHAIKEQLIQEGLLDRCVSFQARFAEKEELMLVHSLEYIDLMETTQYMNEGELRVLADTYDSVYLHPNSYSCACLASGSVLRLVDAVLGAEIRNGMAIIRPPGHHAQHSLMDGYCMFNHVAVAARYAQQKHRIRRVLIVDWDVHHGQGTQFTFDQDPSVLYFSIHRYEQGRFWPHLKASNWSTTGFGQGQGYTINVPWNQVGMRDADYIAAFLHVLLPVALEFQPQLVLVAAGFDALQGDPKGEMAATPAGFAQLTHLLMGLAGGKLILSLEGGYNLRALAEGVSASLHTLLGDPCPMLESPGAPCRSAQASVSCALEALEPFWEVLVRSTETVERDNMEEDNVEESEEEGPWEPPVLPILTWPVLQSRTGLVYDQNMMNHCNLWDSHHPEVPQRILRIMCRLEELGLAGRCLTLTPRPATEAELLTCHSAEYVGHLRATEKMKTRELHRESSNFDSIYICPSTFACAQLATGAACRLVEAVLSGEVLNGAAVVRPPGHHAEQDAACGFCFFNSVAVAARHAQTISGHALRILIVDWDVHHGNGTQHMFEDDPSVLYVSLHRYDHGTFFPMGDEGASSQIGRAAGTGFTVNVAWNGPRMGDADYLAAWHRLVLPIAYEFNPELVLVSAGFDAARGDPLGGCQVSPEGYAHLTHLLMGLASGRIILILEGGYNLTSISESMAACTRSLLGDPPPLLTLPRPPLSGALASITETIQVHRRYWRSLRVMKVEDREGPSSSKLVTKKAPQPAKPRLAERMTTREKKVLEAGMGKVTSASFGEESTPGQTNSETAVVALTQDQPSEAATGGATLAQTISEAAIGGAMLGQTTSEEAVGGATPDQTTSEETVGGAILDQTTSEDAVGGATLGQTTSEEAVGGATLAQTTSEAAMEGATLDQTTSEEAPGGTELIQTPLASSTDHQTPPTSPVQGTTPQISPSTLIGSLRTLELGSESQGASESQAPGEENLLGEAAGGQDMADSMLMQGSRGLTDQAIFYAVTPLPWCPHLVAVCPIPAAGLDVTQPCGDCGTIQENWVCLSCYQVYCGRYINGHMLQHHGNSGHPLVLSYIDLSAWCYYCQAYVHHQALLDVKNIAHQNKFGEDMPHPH
Description: Displacement of fluorescent 5-(3-(3-(4-((4-((7-(hydroxyamino)-7-oxoheptyl)carbamoyl)phenylamino)methyl)-1H-1,2,3-triazol-1-yl)propyl)thioureido)-2-(3-hydroxy-6-oxo-6H-xanthen-9-yl)benzoic acid from human HDAC6 by fluorescence polarization assay

Chain of Histone deacetylase 3/Nuclear receptor corepressor 2 (HDAC3/NCoR2) (O15379 whole entry): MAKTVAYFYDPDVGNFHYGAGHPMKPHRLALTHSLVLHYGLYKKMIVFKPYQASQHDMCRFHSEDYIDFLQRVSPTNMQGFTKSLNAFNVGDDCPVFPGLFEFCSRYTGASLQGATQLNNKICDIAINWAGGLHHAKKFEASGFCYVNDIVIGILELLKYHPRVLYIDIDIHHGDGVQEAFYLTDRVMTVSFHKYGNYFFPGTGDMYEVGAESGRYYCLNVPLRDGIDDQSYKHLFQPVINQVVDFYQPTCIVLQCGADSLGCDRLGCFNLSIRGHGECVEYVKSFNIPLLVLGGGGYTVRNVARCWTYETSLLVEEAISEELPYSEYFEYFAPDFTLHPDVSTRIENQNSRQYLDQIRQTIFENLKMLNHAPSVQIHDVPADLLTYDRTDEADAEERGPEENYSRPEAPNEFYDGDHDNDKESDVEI
Chain of Histone deacetylase 3/Nuclear receptor corepressor 2 (HDAC3/NCoR2) (Q9Y618 whole entry, further chain): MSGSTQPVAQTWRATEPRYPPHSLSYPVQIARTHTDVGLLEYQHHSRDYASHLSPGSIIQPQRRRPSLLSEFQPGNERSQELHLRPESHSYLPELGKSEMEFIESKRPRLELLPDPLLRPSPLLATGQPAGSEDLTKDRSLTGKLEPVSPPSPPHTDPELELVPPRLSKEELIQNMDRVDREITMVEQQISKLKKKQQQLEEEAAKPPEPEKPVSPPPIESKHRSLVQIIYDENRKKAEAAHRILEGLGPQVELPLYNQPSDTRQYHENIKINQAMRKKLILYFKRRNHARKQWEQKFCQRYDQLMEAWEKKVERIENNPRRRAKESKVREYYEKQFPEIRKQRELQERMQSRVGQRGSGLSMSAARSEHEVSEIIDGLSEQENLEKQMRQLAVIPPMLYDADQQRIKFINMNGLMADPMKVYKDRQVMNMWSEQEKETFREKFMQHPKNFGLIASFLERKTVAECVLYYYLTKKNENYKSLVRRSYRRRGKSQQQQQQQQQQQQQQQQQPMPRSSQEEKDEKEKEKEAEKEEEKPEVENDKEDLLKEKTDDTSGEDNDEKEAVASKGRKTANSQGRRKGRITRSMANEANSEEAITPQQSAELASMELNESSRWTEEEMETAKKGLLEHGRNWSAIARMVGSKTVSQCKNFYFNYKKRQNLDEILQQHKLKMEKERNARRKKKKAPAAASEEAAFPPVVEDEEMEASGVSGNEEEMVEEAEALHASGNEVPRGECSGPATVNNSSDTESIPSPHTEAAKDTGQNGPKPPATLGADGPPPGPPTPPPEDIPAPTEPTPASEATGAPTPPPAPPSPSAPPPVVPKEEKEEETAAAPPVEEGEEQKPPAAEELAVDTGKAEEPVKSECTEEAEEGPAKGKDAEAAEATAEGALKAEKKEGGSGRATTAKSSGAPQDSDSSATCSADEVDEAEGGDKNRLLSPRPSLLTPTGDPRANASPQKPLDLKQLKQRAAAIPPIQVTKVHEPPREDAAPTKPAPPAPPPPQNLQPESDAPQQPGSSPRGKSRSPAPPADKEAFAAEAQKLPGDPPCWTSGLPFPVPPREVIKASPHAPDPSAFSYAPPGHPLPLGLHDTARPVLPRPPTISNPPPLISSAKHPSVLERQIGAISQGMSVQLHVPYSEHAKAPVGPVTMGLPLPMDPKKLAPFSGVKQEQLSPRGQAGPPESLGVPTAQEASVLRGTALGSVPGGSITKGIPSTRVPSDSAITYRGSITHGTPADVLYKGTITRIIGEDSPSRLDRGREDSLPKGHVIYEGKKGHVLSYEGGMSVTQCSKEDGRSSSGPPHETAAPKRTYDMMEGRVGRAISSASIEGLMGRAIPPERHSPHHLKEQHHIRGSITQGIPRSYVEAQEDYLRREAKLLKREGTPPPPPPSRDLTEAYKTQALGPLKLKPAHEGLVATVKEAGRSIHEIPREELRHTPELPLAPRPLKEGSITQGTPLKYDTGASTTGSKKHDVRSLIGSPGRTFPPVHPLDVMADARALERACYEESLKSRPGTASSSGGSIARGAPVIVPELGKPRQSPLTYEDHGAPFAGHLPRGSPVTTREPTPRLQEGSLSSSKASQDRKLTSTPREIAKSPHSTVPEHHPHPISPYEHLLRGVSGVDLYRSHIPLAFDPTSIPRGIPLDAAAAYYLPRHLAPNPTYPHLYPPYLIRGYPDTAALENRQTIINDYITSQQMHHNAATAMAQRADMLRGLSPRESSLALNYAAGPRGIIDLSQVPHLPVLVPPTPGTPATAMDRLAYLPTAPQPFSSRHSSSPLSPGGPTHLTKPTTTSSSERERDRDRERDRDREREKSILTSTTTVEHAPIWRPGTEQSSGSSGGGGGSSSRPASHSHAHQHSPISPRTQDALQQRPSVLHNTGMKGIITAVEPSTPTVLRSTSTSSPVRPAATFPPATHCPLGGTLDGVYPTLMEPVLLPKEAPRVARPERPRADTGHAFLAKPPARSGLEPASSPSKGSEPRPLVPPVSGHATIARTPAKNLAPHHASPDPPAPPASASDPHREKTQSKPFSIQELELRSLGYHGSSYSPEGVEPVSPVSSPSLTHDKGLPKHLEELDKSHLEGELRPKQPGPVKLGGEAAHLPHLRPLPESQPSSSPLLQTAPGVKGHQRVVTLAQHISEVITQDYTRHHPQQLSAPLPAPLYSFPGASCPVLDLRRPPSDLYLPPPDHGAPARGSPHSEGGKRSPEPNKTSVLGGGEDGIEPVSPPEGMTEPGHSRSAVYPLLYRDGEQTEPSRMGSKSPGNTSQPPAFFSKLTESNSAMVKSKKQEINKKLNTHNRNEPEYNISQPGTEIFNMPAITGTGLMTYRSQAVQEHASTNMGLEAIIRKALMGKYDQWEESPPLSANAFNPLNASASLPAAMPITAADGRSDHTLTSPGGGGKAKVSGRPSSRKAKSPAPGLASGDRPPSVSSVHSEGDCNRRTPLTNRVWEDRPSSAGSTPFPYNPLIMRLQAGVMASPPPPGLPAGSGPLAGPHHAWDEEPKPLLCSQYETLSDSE

Consider `O=C1CCc2c(ccc3ccccc23)O1` [SPLITOMICIN], for which, in assay [1], the pIC50 is less than 4.12 and the pKi is less than 4.12. In addition, the IC50 on Histone deacetylase was more than 75000 nM. In assay [2], the pIC50 is less than 4.12 and the pKi is less than 4.12.

In assay [1], `NCCCn1cc(CNc2ccc(C(=O)NCCCCCCC(=O)NO)cc2)nn1` showed a pIC50 of 6.86 and a negative logarithm of the Ki (pKi) of 7.64. The same compound had an IC50 against Histone deacetylase of 58 nM. In assay [2], this compound had a pIC50 of 7.29 and a negative-log Ki (pKi) of 8.18.

For the compound `O=C(CCCCCCNC(=O)c1ccc(NCc2cn(CCCNC(=S)Nc3ccc(-c4c5ccc(=O)cc-5oc5ccccc45)c(C(=O)O)c3)nn2)cc1)NO`, the pKd in assay [1] was 8.70; in assay [2], 8.34.

By pIC50 is commonly meant the negative decadic logarithm of the IC50, by convention in mol/L. A high value points to a small IC50. A word on the pKi: it is −log10 of the Ki, conventionally taken in molar units. Low readings indicate a large Ki, high ones a small Ki. The term IC50 denotes the concentration that gives 50% inhibition. As a reminder, the pKd is −log10 of the Kd, conventionally taken in molar units. A higher pKd goes with a low Kd.
